In publication PMC10291704 (Biology of blood and marrow transplantation : journal of …, 2019):
“And” between values parts separate entries of the source, which are not always exact repeats. Equal entries are not always repeated. Where two headings read alike, the source gives them in different places.

Legend:
[1] = cited from earlier work
[2] = tested on: human cell-line model of busulfan-resistant acute myelogenous leukemia; details: cited from earlier work; for inhibitory concentration: busulfan-resistant AML cell line
[3] = 16 patients, 40 mg/m^2/day; cited from earlier work
[4] = type: in vivo, human
[5] = between WBC of 0.3 × 10^3 /μL and 259 × 10^3 /μL; cited from earlier work

Nc1nc(Cl)nc2c1ncn2[C@@H]1O[C@H](CO)[C@@H](O)[C@@H]1F [clo-fara, clofarabine]
dose excreted in the urine unchanged ([1]; 24-hour urine collections in pediatric studies): 49–60% | hepatic and non-hepatic metabolic conversion [1]: 0.2% | inhibitory concentration [2]: 0.06 µM | difference in cytotoxic activity, clofarabine vs fludarabine ([2]; from inhibitory concentrations): ~50 fold | variability observed in clo-fara PK parameters (CL, AUC, volume of distribution) [3]: 2–3 fold | Additive error ([4]; bootstrap mean value): 0.36 ng/mL | Proportional residual unexplained variability ([4]; bootstrap mean value): 32.7% | Volume of the peripheral compartment (Vp) ([4]; bootstrap mean value): 47.3 L/15kg | between-subject variability for volume of central compartment ([4]; final model): 40% | Additive error ([4]; final model parameter estimate): 0.36 ng/mL | Proportional residual unexplained variability ([4]; final model parameter estimate): 33% and 33.2% | Volume of the peripheral compartment (Vp) ([4]; final model parameter estimate): 47 L/15kg and 47.4 L/15kg | AUC ([4]; human, in vivo): 3300 ng·h/mL | Inter-compartmental CL ([4]; human, in vivo): 164 mL/min/kg | Maturation half-time (Thalf) of age effect on CL ([4]; human, in vivo): 0.41 years | Typical value for clo-fara CL ([4]; human, in vivo): 23.4 L/h/15kg | between-subject variability for clo-fara CL ([4]; human, in vivo): 26% | clearance ([4]; human, in vivo): 390 mL/min | intercompartmental CL ([4]; human, in vivo): 9.8 L/h/15kg | AUC at 4 daily doses ([4]; human, in vivo, 10 mg/m2): 1200 ng·h/mL | AUC(0-t) ([4]; human, in vivo, 10 mg/m2, AUC0–24, median (range)): 300 ng·h/mL | AUC at 4 daily doses ([4]; human, in vivo, 30 mg/m2): 3300 ng·h/mL | AUC(0-t) ([4]; human, in vivo, 30 mg/m2, AUC0–24, median (range)): 820 ng·h/mL | AUC0–24, median (range) ([4]; human, in vivo, 40 mg/m2): 1.04 (0.87 – 4.0) mg•hr/L | AUC at 5 daily doses ([4]; human, in vivo, 40 mg/m2): 5200 ng·h/mL | AUC(0-t) ([4]; human, in vivo, 40 mg/m2, AUC0–24, median (range)): 780 ng·h/mL | AUC(0-t) ([4]; human, in vivo, 40 mg/m2, AUC0–24, outlier value of one subject): 4000 ng·h/mL | AUC(0-t) ([4]; human, in vivo, 40 mg/m2, AUC0–24 of the other subjects): ≤ 1170 ng·h/mL | increase of predicted volume of the central compartment with WBC [5]: 2.38 fold

Nc1nc(F)nc2c1ncn2[C@@H]1O[C@H](CO)[C@@H](O)[C@@H]1O [fludarabine]
inhibitory concentration [2]: 3.0 µM
